Assay results as given in PubChem BioAssay (NCI).
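The compound was tested at five concentrations on cells cultured in 96-well plates, with a 48-hour exposure period. GI50: concentration for 50% inhibition of growth. TGI marks complete inhibition of growth.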

Tests used:
Assay in all cases: NCI tumour cell line growth inhibition, 48 h
786-0 renal = tested on: 786-0 renal
A498 renal = tested on: A498 renal
A549 NSCLC = tested on: A549 NSCLC
ACHN renal = tested on: ACHN renal
BT-549 breast = tested on: BT-549 breast
CAKI-1 renal = tested on: CAKI-1 renal
CCRF-CEM leukemia = tested on: CCRF-CEM leukemia
COLO 205 colon = tested on: COLO 205 colon
DU-145 prostate = tested on: DU-145 prostate
EKVX NSCLC = tested on: EKVX NSCLC
HCC-2998 colon = tested on: HCC-2998 colon
HCT-116 colon = tested on: HCT-116 colon
HCT-15 colon = tested on: HCT-15 colon
HL-60(TB) leukemia = tested on: HL-60(TB) leukemia
HOP-62 NSCLC = tested on: HOP-62 NSCLC
HOP-92 NSCLC = tested on: HOP-92 NSCLC
HS 578T breast = tested on: HS 578T breast
HT29 colon = tested on: HT29 colon
IGROV1 ovarian = tested on: IGROV1 ovarian
K-562 leukemia = tested on: K-562 leukemia
KM12 colon = tested on: KM12 colon
LOX IMVI melanoma = tested on: LOX IMVI melanoma
M14 melanoma = tested on: M14 melanoma
MALME-3M melanoma = tested on: MALME-3M melanoma
MCF7 breast = tested on: MCF7 breast
MDA-MB-231 breast = tested on: MDA-MB-231 breast
MDA-MB-435 = tested on: MDA-MB-435
MOLT-4 leukemia = tested on: MOLT-4 leukemia
NCI-H226 lung = tested on: NCI-H226 lung
NCI-H23 lung = tested on: NCI-H23 lung
NCI-H460 lung = tested on: NCI-H460 lung
NCI-H522 lung = tested on: NCI-H522 lung
NCI/ADR-RES ovarian = tested on: NCI/ADR-RES ovarian
OVCAR-3 ovarian = tested on: OVCAR-3 ovarian
OVCAR-4 ovarian = tested on: OVCAR-4 ovarian
OVCAR-5 ovarian = tested on: OVCAR-5 ovarian
OVCAR-8 ovarian = tested on: OVCAR-8 ovarian
PC-3 prostate = tested on: PC-3 prostate
RPMI-8226 leukemia = tested on: RPMI-8226 leukemia
RXF 393 renal = tested on: RXF 393 renal
SF-268 CNS = tested on: SF-268 CNS
SF-295 CNS = tested on: SF-295 CNS
SF-539 CNS = tested on: SF-539 CNS
SK-MEL-2 melanoma = tested on: SK-MEL-2 melanoma
SK-MEL-28 melanoma = tested on: SK-MEL-28 melanoma
SK-MEL-5 melanoma = tested on: SK-MEL-5 melanoma
SK-OV-3 ovarian = tested on: SK-OV-3 ovarian
SN12C renal = tested on: SN12C renal
SNB-19 CNS = tested on: SNB-19 CNS
SNB-75 CNS = tested on: SNB-75 CNS
SW-620 colon = tested on: SW-620 colon
T-47D breast = tested on: T-47D breast
TK-10 renal = tested on: TK-10 renal
U251 CNS = tested on: U251 CNS
UACC-257 melanoma = tested on: UACC-257 melanoma
UACC-62 melanoma = tested on: UACC-62 melanoma
UO-31 renal = tested on: UO-31 renal

CC(C)n1cc(-c2ccc3c(c2)N(C)CC3)c2c(NS(=O)(=O)c3ccn(C)n3)ccnc21
GI50 (786-0 renal): 43.7 µM | TGI (786-0 renal): > 100 µM | GI50 (A498 renal): 36.3 µM | TGI (A498 renal): > 100 µM | GI50 (A549 NSCLC): 44 µM | TGI (A549 NSCLC): > 100 µM | GI50 (ACHN renal): 49.8 µM | TGI (ACHN renal): > 100 µM | GI50 (BT-549 breast): 25.3 µM | TGI (BT-549 breast): > 100 µM | GI50 (CAKI-1 renal): 44.3 µM | TGI (CAKI-1 renal): > 100 µM | GI50 (CCRF-CEM leukemia): > 100 µM | TGI (CCRF-CEM leukemia): > 100 µM | GI50 (COLO 205 colon): > 100 µM | TGI (COLO 205 colon): > 100 µM | GI50 (DU-145 prostate): > 100 µM | TGI (DU-145 prostate): > 100 µM | GI50 (EKVX NSCLC): 28.2 µM | TGI (EKVX NSCLC): > 100 µM | GI50 (HCC-2998 colon): > 100 µM | TGI (HCC-2998 colon): > 100 µM | GI50 (HCT-116 colon): 48 µM | TGI (HCT-116 colon): > 100 µM | GI50 (HCT-15 colon): 35.9 µM | TGI (HCT-15 colon): > 100 µM | GI50 (HL-60(TB) leukemia): 59.2 µM | TGI (HL-60(TB) leukemia): > 100 µM | GI50 (HOP-62 NSCLC): > 100 µM | TGI (HOP-62 NSCLC): > 100 µM | GI50 (HOP-92 NSCLC): 24.6 µM | TGI (HOP-92 NSCLC): > 100 µM | GI50 (HS 578T breast): 37 µM | TGI (HS 578T breast): > 100 µM | GI50 (HT29 colon): 71.9 µM | TGI (HT29 colon): > 100 µM | GI50 (IGROV1 ovarian): 59.1 µM | TGI (IGROV1 ovarian): > 100 µM | GI50 (K-562 leukemia): 79.9 µM | TGI (K-562 leukemia): > 100 µM | GI50 (KM12 colon): 47.9 µM | TGI (KM12 colon): > 100 µM | GI50 (LOX IMVI melanoma): 47.8 µM | TGI (LOX IMVI melanoma): > 100 µM | GI50 (M14 melanoma): 44.5 µM | TGI (M14 melanoma): > 100 µM | GI50 (MALME-3M melanoma): > 100 µM | TGI (MALME-3M melanoma): > 100 µM | GI50 (MCF7 breast): 31.5 µM | TGI (MCF7 breast): > 100 µM | GI50 (MDA-MB-231 breast): 76.1 µM | TGI (MDA-MB-231 breast): > 100 µM | GI50 (MDA-MB-435): 83 µM | TGI (MDA-MB-435): > 100 µM | GI50 (MOLT-4 leukemia): 65.7 µM | TGI (MOLT-4 leukemia): > 100 µM | GI50 (NCI-H226 lung): 39.4 µM | TGI (NCI-H226 lung): > 100 µM | GI50 (NCI-H23 lung): 74.6 µM | TGI (NCI-H23 lung): > 100 µM | GI50 (NCI-H460 lung): 47.9 µM | TGI (NCI-H460 lung): > 100 µM | GI50 (NCI-H522 lung): 49.3 µM | TGI (NCI-H522 lung): > 100 µM | GI50 (NCI/ADR-RES ovarian): 49.5 µM | TGI (NCI/ADR-RES ovarian): > 100 µM | GI50 (OVCAR-3 ovarian): 60.4 µM | TGI (OVCAR-3 ovarian): > 100 µM | GI50 (OVCAR-4 ovarian): 52.5 µM | TGI (OVCAR-4 ovarian): > 100 µM | GI50 (OVCAR-5 ovarian): > 100 µM | TGI (OVCAR-5 ovarian): > 100 µM | GI50 (OVCAR-8 ovarian): 72.7 µM | TGI (OVCAR-8 ovarian): > 100 µM | GI50 (PC-3 prostate): 45.2 µM | TGI (PC-3 prostate): > 100 µM | GI50 (RPMI-8226 leukemia): 54.2 µM | TGI (RPMI-8226 leukemia): > 100 µM | GI50 (RXF 393 renal): 29.1 µM | TGI (RXF 393 renal): > 100 µM | GI50 (SF-268 CNS): 62 µM | TGI (SF-268 CNS): > 100 µM | GI50 (SF-295 CNS): 27.4 µM | TGI (SF-295 CNS): > 100 µM | GI50 (SF-539 CNS): 64.4 µM | TGI (SF-539 CNS): > 100 µM | GI50 (SK-MEL-2 melanoma): 56.6 µM | TGI (SK-MEL-2 melanoma): > 100 µM | GI50 (SK-MEL-28 melanoma): 34.5 µM | TGI (SK-MEL-28 melanoma): > 100 µM | GI50 (SK-MEL-5 melanoma): 37.4 µM | TGI (SK-MEL-5 melanoma): > 100 µM | GI50 (SK-OV-3 ovarian): > 100 µM | TGI (SK-OV-3 ovarian): > 100 µM | GI50 (SN12C renal): 91.8 µM | TGI (SN12C renal): > 100 µM | GI50 (SNB-19 CNS): > 100 µM | TGI (SNB-19 CNS): > 100 µM | GI50 (SNB-75 CNS): 39.9 µM | TGI (SNB-75 CNS): > 100 µM | GI50 (SW-620 colon): 69.7 µM | TGI (SW-620 colon): > 100 µM | GI50 (T-47D breast): 29.7 µM | TGI (T-47D breast): > 100 µM | GI50 (TK-10 renal): > 100 µM | TGI (TK-10 renal): > 100 µM | GI50 (U251 CNS): 61.9 µM | TGI (U251 CNS): > 100 µM | GI50 (UACC-257 melanoma): > 100 µM | TGI (UACC-257 melanoma): > 100 µM | GI50 (UACC-62 melanoma): 36.7 µM | TGI (UACC-62 melanoma): > 100 µM | GI50 (UO-31 renal): 31.7 µM | TGI (UO-31 renal): > 100 µM
